Assay results reported in ChEMBL document CHEMBL3774356, “Definitive Metabolite Identification Coupled with Automated Ligand Identification System (ALIS) Technology: A Novel Approach to Uncover Structure-Activity Relationships and Guide Drug Design in a Factor IXa Inhibitor Program” (J Med Chem, 2016).

Tests used:
[1] = system: Liver microsome; test: Drug metabolism in Sprague-Dawley rat liver microsomes assessed as (R)-2,6-dichloro-N-(2-(3-fluorophenyl)-2-(2-methyl-1H-benzo[d]imidazol-5-yl)ethyl)-4-(3-(hydroxymethyl)-1H-1,2,4-triazol-1-yl)benzamide formation after 4 hrs by LC-MS/MS analysis; format: ADME
[2] = target: Coagulation factor IX (Homo sapiens, UniProt P00740); test: Inhibition of human factor 9a using CH3SO2-DCHG-Gly-Arg-AFC.AcOH as substrate preinubated for 30 mins followed by substrate addition measured after 1 hr by fluorescence assay
[3] = system: Rattus norvegicus; test: Dose normalized AUC in Hans-Wistar rat at 2 mg/kg, po; format: ADME, organism-based; details: in vivo
[4] = system: Liver microsome; test: Drug metabolism in human liver microsomes assessed as (R)-2,6-dichloro-N-(2-(3-fluorophenyl)-2-(2-methyl-1H-benzo[d]imidazol-5-yl)ethyl)-4-(3-(hydroxymethyl)-1H-1,2,4-triazol-1-yl)benzamide formation after 4 hrs by LC-MS/MS analysis; format: ADME
[5] = system: Liver microsome; test: Drug metabolism in human liver microsomes assessed as (R)-2,6-dichloro-N-(2-(3-fluorophenyl)-2-hydroxy-2-(2-methyl-1H-benzo[d]imidazol-5-yl)ethyl)-4-(3-methyl-1H-1,2,4-triazol-1-yl)benzamide formation after 4 hrs by LC-MS/MS analysis; format: ADME
[6] = system: Liver microsome; test: Drug metabolism in Sprague-Dawley rat liver microsomes assessed as (R)-2,6-dichloro-N-(2-(3-fluorophenyl)-2-hydroxy-2-(2-methyl-1H-benzo[d]imidazol-5-yl)ethyl)-4-(3-methyl-1H-1,2,4-triazol-1-yl)benzamide formation after 4 hrs by LC-MS/MS analysis; format: ADME
[7] = system: Liver microsome; test: Drug metabolism in beagle dog liver microsomes assessed as (R)-2,6-dichloro-N-(2-(3-fluorophenyl)-2-(2-methyl-1H-benzo[d]imidazol-5-yl)ethyl)-4-(3-(hydroxymethyl)-1H-1,2,4-triazol-1-yl)benzamide formation at 100 uM after 4 hrs by LC-MS/MS analysis; format: ADME, Canis lupus familiaris
[8] = system: Liver microsome; test: Drug metabolism in beagle dog liver microsomes assessed as (R)-2,6-dichloro-N-(2-(3-fluorophenyl)-2-hydroxy-2-(2-methyl-1H-benzo[d]imidazol-5-yl)ethyl)-4-(3-methyl-1H-1,2,4-triazol-1-yl)benzamide formation at 100 uM after 4 hrs by LC-MS/MS analysis; format: ADME, Canis lupus familiaris
[9] = system: Liver microsome; test: Drug level in Sprague-Dawley rat liver microsomes treated with (R)-2,6-Dichloro-N-(2-(3-fluorophenyl)-2-(2-methyl-1Hbenzo[d]imidazol-5-yl)ethyl)-4-(3-methyl-1H-1,2,4-triazol-1-yl)-benzamide after 4 hrs by LC-MS/MS analysis; format: ADME
[10] = system: Liver microsome; test: Drug level in human liver microsomes treated with (R)-2,6-Dichloro-N-(2-(3-fluorophenyl)-2-(2-methyl-1Hbenzo[d]imidazol-5-yl)ethyl)-4-(3-methyl-1H-1,2,4-triazol-1-yl)-benzamide after 4 hrs by LC-MS/MS analysis; format: ADME
[11] = Retention time of the compound by size exclusion chromatography; format: physicochemical
[12] = system: Liver microsome; test: Drug level in beagle dog liver microsomes treated with (R)-2,6-Dichloro-N-(2-(3-fluorophenyl)-2-(2-methyl-1Hbenzo[d]imidazol-5-yl)ethyl)-4-(3-methyl-1H-1,2,4-triazol-1-yl)-benzamide at 100 uM after 4 hrs by LC-MS/MS analysis; format: ADME, Canis lupus familiaris

Chain of Coagulation factor IX (P00740 47-191 limits assumed): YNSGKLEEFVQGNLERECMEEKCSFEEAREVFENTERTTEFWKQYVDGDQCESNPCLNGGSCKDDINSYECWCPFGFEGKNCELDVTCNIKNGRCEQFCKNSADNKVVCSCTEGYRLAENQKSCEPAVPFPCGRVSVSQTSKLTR
Chain of Coagulation factor IX (P00740 227-461 limits assumed): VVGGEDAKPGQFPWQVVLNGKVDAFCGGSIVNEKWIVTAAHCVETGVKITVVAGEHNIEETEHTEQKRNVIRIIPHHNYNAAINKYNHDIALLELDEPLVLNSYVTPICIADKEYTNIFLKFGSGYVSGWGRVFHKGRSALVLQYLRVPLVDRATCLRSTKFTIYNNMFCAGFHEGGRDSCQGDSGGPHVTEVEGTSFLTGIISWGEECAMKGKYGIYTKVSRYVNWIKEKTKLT

| SMILES | Drug metabolism [1] | IC50 [2] [µM] | AUC/dose [3] [µM·h/mg/kg] | Drug metabolism [4] | Drug metabolism [5] | Drug metabolism [6] | Drug metabolism [7] | Drug metabolism [8] | Drug metabolism [9] | Drug metabolism [10] | Retention_time [11] [min] | Drug metabolism [12] | Ki [2] [µM] |
| --- | --- | --- | --- | --- | --- | --- | --- | --- | --- | --- | --- | --- | --- |
| Cc1nc2cc([C@@H](CNC(=O)c3c(Cl)cc(-n4cnc(CO)n4)cc3Cl)c3cccc(F)c3)ccc2[nH]1 | – | 0.011 | – | – | – | – | – | – | metabolite_detected | metabolite_detected | 3.84 | metabolite_detected | – |
| Cc1ncn(-c2cc(Cl)c(C(=O)NC[C@@H](c3cccc(F)c3)c3cc(F)c4[nH]c(C)nc4c3)c(Cl)c2)n1 | – | – | – | – | – | – | – | – | – | – | – | – | 0.0106 |
| Cc1ncn(-c2cc(Cl)c(C(=O)NCC(O)(c3cccc(F)c3)c3ccc4[nH]c(C)nc4c3)c(Cl)c2)n1 (single isomer, unassigned) | – | 0.0639 | – | – | – | – | – | – | metabolite_detected | metabolite_detected | 4.24 | metabolite_detected | – |

Continued by falling IC50 [2], values first:

| Drug metabolism [1] | IC50 [2] [µM] | AUC/dose [3] [µM·h/mg/kg] | Drug metabolism [4] | Drug metabolism [5] | Drug metabolism [6] | Drug metabolism [7] | Drug metabolism [8] | Drug metabolism [9] | Drug metabolism [10] | Retention_time [11] [min] | Drug metabolism [12] | Ki [2] [µM] | SMILES |
| --- | --- | --- | --- | --- | --- | --- | --- | --- | --- | --- | --- | --- | --- |
| metabolite_detected | 0.00999 | 0.097 | metabolite_detected | metabolite_detected | metabolite_detected | metabolite_detected | metabolite_detected | – | – | – | – | – | Cc1ncn(-c2cc(Cl)c(C(=O)NC[C@@H](c3cccc(F)c3)c3ccc4[nH]c(C)nc4c3)c(Cl)c2)n1 |
| – | 0.00186 | – | – | – | – | – | – | metabolite_detected | metabolite_detected | 3.59 | – | – | Cc1ncn(-c2cc(Cl)c(C(=O)NC[C@@H](c3ccc(O)c(F)c3)c3ccc4[nH]c(C)nc4c3)c(Cl)c2)n1 |
